The values that follow come from ChEMBL document CHEMBL5365482, “Rational Design of Sulfonyl-γ-AApeptides as Highly Potent HIV-1 Fusion Inhibitors with Broad-Spectrum Activity” (J Med Chem, 2023).

Where only a bound is given, the exact number is not on record here.

Series [1] has as its system Human immunodeficiency virus 1. The experiment in a line: Antiviral activity against HIV1 IIIB infected in human MT2 cells assessed as inhibition of viral growth incubated for 30 mins by ELISA assay. As to conditions: Human immunodeficiency virus 1, IIIB, MT2, 0.5 h. It is filed as functional, organism-based.
The nature of series [2]: Cytotoxicity against human MT2 cells assessed as inhibition of cell growth measured after 3 days by CCK8 assay. The conditions noted are these: time 3 day. It is filed as toxicity, cell-based. In general terms: Tetrazolium dyes change colour on reduction, which living cells bring about.
Series [3] in a line: Selectivity index, ratio of CC50 for human MT2 cells to IC50 for HIV1 IIIB infected in human MT2 cells. It is filed as toxicity, cell-based. As to conditions: read-out: Ratio CC50/IC50.
Series [4] can be described thus: Stability of compound in ammonium bicarbonate buffer at pH 7.8 at 0.1 mg/ml incubated for 24 hrs under at 37 degreeC in presence of pronase by HPLC analysis. It is filed as physicochemical. As to conditions: pH 7.8, 24 h.
Series [5] relates to Human immunodeficiency virus 1. The experiment in a line: Antiviral activity against HIV1 CRF02_AG Clone 278 clinical isolate infected in human TZM-bl cells assessed as inhibition of viral growth incubated for 48 hrs by luciferase based analysis. It is filed as functional, organism-based. The conditions noted are these: Human immunodeficiency virus 1, CRF02_AG Clone 278, TZM-bl.

The test system of series [6] is Human immunodeficiency virus 1. The experiment in a line: Antiviral activity against HIV1 QD435.100MENV.E1 clinical isolate infected in human TZM-bl cells assessed as inhibition of viral growth incubated for 48 hrs by luciferase based analysis. It is filed as functional, organism-based. As to conditions: Human immunodeficiency virus 1, QD435.100MENV.E1, TZM-bl.
Series [7] concerns Human immunodeficiency virus 1. The experiment in a line: Antiviral activity against HIV1 CRF02_AG Clone 33 clinical isolate infected in human TZM-bl cells assessed as inhibition of viral growth incubated for 48 hrs by luciferase based analysis. It is filed as functional, organism-based. As to conditions: Human immunodeficiency virus 1, CRF02_AG Clone 33, TZM-bl.
The subject of series [8] is Human immunodeficiency virus 1. The experiment in a line: Antiviral activity against HIV1 Q259env.w6 clinical isolate infected in human TZM-bl cells assessed as inhibition of viral growth incubated for 48 hrs by luciferase based analysis. It is filed as functional, organism-based. As to conditions: Human immunodeficiency virus 1, Q259env.w6, TZM-bl.
The test system of series [9] is Human immunodeficiency virus 1. The experiment in a line: Antiviral activity against HIV1 QA013.701.ENV.M12 clinical isolate infected in human TZM-bl cells assessed as inhibition of viral growth incubated for 48 hrs by luciferase based analysis. The conditions noted are these: Human immunodeficiency virus 1, QA013.701.ENV.M12, TZM-bl. It is filed as functional, organism-based.

In series [10] the test system is Human immunodeficiency virus 1. The experiment in a line: Antiviral activity against HIV1 X4 […] MN/H9 (84US_MNp) clinical isolate infected in human MT2 cells assessed as inhibition of viral growth incubated for 30 mins by ELISA assay. It is filed as functional, organism-based. As to conditions: Human immunodeficiency virus 1, X4 […] MN/H9 (84US_MNp), MT2, 0.5 h. For orientation: ELISA stands for enzyme-linked immunosorbent assay.

Series [11] concerns Human immunodeficiency virus 1. The experiment in a line: Antiviral activity against HIV1 R5 […] US4/GS 007 (91US_4) clinical isolate infected in human CEMx174 5.25M7 cells assessed as inhibition of viral growth incubated for 30 mins by ELISA assay. The conditions noted are these: Human immunodeficiency virus 1, R5 […] US4/GS 007 (91US_4), CEMx174 5.25M7, 0.5 h. It is filed as functional, organism-based.

Series [12] addresses T1, Envelope glycoprotein gp160 (Human immunodeficiency virus 1, UniProt Q72502). The experiment in a line: Binding affinity to HIV1 GP41 using GP41 NHR derived N36 peptide assessed as binding constant by fluorescence polarization assay. (In general: In fluorescence polarisation assays a small probe gives low polarisation when free and higher when bound to something large.)

In series [13] the target is T1, Envelope glycoprotein gp160. The experiment in a line: Binding affinity to HIV1 GP41 using GP41 NHR derived N36 peptide assessed as binding constant in presence of C34 by fluorescence polarization assay.
Series [14] in a line: Apparent permeability of the compound across gastrointestinal tract in PBS buffer at pH 5 at 50 uM by PAMPA analysis. It is filed as ADME, tissue-based. The conditions noted are these: for Papp at 50 µM: PAMPA, pH 5.
Series [15] can be described thus: Apparent permeability of the compound across gastrointestinal tract in PBS buffer at pH 6.2 at 50 uM by PAMPA analysis. As to conditions: for Papp at 50 µM: PAMPA, pH 6.2. It is filed as ADME, tissue-based.
Series [16] can be described thus: Apparent permeability of the compound across gastrointestinal tract in PBS buffer at pH 7.4 at 50 uM by PAMPA analysis. It is filed as ADME, tissue-based.
The nature of series [17]: Apparent permeability of the compound across blood brain barrier in PBS buffer at pH 7.4 at 15 uM by PAMPA analysis. It is filed as ADME, tissue-based.
A short description of series [18]: Apparent permeability of the compound across blood brain barrier in PBS buffer at pH 7.4 at 25 uM by PAMPA analysis. It is filed as ADME, tissue-based.
The nature of series [19]: Apparent permeability of the compound across gastrointestinal tract in PBS buffer at pH 5 at 200 uM by PAMPA analysis. It is filed as ADME, tissue-based.
Series [20] can be described thus: Apparent permeability of the compound across gastrointestinal tract in PBS buffer at pH 6.2 at 200 uM by PAMPA analysis. It is filed as ADME, tissue-based.
Series [21] is described as follows: Apparent permeability of the compound across gastrointestinal tract in PBS buffer at pH 7.4 at 200 uM by PAMPA analysis. It is filed as ADME, tissue-based.
Another series in a line: in vitro. The conditions noted are these: PAMPA, pH 7.4.

T1 sequence (Q72502 whole entry): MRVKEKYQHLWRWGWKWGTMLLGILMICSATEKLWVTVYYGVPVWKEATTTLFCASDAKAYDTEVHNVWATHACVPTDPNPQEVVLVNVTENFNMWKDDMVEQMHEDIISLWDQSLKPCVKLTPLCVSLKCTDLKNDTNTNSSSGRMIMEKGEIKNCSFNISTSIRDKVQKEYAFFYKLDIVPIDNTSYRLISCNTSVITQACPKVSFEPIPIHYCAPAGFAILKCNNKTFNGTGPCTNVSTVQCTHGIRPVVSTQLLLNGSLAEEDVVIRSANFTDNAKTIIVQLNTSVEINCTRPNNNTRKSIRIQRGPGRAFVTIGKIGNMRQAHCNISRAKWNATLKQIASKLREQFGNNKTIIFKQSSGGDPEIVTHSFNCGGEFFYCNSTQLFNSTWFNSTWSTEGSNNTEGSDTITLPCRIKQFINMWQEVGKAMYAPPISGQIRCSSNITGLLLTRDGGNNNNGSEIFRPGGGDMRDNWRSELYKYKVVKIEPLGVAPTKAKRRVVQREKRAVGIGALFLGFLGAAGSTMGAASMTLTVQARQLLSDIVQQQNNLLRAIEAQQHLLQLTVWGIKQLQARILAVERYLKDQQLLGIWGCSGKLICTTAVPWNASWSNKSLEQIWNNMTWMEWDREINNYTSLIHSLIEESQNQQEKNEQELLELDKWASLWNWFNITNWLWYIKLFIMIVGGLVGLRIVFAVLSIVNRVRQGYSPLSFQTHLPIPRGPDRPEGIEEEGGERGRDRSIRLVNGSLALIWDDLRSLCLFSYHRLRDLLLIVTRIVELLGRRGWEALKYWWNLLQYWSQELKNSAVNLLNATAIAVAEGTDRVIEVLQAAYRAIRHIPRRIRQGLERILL
Description for in vitro: Apparent permeability of the compound across blood brain barrier in PBS buffer at pH 7.4 at 250 uM by PAMPA analysis

For the compound `CC[C@@H](C)[C@@H](CN(CC(=O)N[C@@H](CCC(=O)O)CN(CC(=O)N[C@@H](CC(C)C)CN(CC(N)=O)S(=O)(=O)CC(C)C)S(=O)(=O)c1ccc(C(=O)O)cc1)S(=O)(=O)CC(C)C)NC(=O)CN(C[C@H](CCCCN)NC(=O)CN(C[C@H](Cc1ccc(O)cc1)NC(=O)CN(C[C@H](CCC(=O)O)NC(=O)CN(C[C@@H](NC(=O)CN(C[C@H](CCCCN)NC(=O)CN(C[C@H](Cc1c[nH]c2ccccc12)NC(=O)CN(C[C@H](CCC(=O)O)NC(=O)CN(C[C@H](Cc1c[nH]c2ccccc12)NC(=O)CN(C[C@H](CCSC)NC(C)=O)S(=O)(=O)c1ccc(OC)cc1)S(=O)(=O)CC(C)C)S(=O)(=O)c1ccc(C(=O)O)cc1)S(=O)(=O)CC(C)C)S(=O)(=O)CCN)[C@H](C)CC)S(=O)(=O)CC(C)C)S(=O)(=O)c1ccc(C(=O)O)cc1)S(=O)(=O)CC(C)C)S(=O)(=O)CCN`, the 50% inhibitory concentration (IC50) in [1] worked out at 4000 nM. In addition, the CC50 at 72 h in series [2] is > 40000 nM. Moreover, the selectivity ratio in series [3] was > 10. The Stability result in series [4] was “Stable”.
Consider `CCCCCCCCCCCCCCCCCC(=O)NCCCC[C@H](NC(=O)CN(C[C@H](CC(C)C)NC(=O)CN(C[C@H](CCC(=O)O)NC(=O)CN(C[C@@H](NC(=O)CN(C[C@H](CCCCN)NC(=O)CN(C[C@H](Cc1ccc(O)cc1)NC(=O)CN(C[C@H](CCC(=O)O)NC(=O)CN(C[C@@H](NC(=O)CN(C[C@H](CCCCN)NC(=O)CN(C[C@H](Cc1c[nH]c2ccccc12)NC(=O)CN(C[C@H](CCC(=O)O)NC(=O)CN(C[C@H](Cc1c[nH]c2ccccc12)NC(=O)CN(C[C@H](CCSC)NC(C)=O)S(=O)(=O)c1ccc(OC)cc1)S(=O)(=O)CC(C)C)S(=O)(=O)c1ccc(C(=O)O)cc1)S(=O)(=O)CC(C)C)S(=O)(=O)CCN)[C@H](C)CC)S(=O)(=O)CC(C)C)S(=O)(=O)c1ccc(C(=O)O)cc1)S(=O)(=O)CC(C)C)S(=O)(=O)CCN)[C@H](C)CC)S(=O)(=O)CC(C)C)S(=O)(=O)c1ccc(C(=O)O)cc1)S(=O)(=O)CC(C)C)C(N)=O`, for which the IC50 came out at 180 nM in series [1]; 60.4 nM in series [5]; 85.3 nM in series [6]; 64.7 nM in series [7]; 84.4 nM in series [8]; 61 nM in [9]. In addition, the 50% inhibitory concentration (IC50) in series [10] came out at 940 nM; in series [11] it was 88.8 nM. Moreover, in [2], the 50% cytotoxic concentration (CC50) at 72 h was 19300 nM. Moreover, the selectivity ratio in [3] worked out at 106. Also, the Kd in series [12] is 670 nM; in series [13], > 46000 nM. The values for the apparent permeability coefficient (Papp) at 50 µM in series [14], in series [15] and in series [16] were 610 ×10⁻⁶ cm/s, 522 ×10⁻⁶ cm/s and 520 ×10⁻⁶ cm/s, respectively. Also, in series [17], the Papp at 15 µM was 256 ×10⁻⁶ cm/s.
On to `CC[C@@H](C)[C@@H](CN(CC(=O)N[C@@H](CCC(=O)O)CN(CC(=O)N[C@@H](CC(C)C)CN(CC(N)=O)S(=O)(=O)CC(C)C)S(=O)(=O)c1ccc(C(=O)O)cc1)S(=O)(=O)CC(C)C)NC(=O)CN(C[C@H](CCCCN)NC(=O)CN(C[C@H](Cc1ccc(O)cc1)NC(=O)CN(C[C@H](CCC(=O)O)NC(=O)CN(C[C@@H](NC(=O)CN(C[C@H](CCCCN)NC(=O)CN(C[C@H](Cc1c[nH]c2ccccc12)NC(=O)CN(C[C@H](CCC(=O)O)NC(=O)CN(C[C@H](Cc1c[nH]c2ccccc12)NC(=O)CN(C[C@H](CCSC)NC(C)=O)S(=O)(=O)CC(C)C)S(=O)(=O)CC(C)C)S(=O)(=O)c1ccc(C(=O)O)cc1)S(=O)(=O)CC(C)C)S(=O)(=O)CCN)[C@H](C)CC)S(=O)(=O)CC(C)C)S(=O)(=O)c1ccc(C(=O)O)cc1)S(=O)(=O)CC(C)C)S(=O)(=O)CCN`, for which the IC50 in series [1] was determined as 30000 nM. In series [2], the 50% cytotoxic concentration (CC50) at 72 h is > 40000 nM. For the same compound, in series [3], the selectivity ratio is > 1.3. Further, the Stability entry in series [4] was “Stable”.
For the compound `CCCCCCCCCCCCCCCCCC(=O)NCCCC[C@H](NC(=O)CN(C[C@H](CC(C)C)NC(=O)CN(C[C@H](CCC(=O)O)NC(=O)CN(C[C@@H](NC(=O)CN(C[C@H](CCCCN)NC(=O)CN(C[C@H](Cc1ccc(O)cc1)NC(=O)CN(C[C@H](CCC(=O)O)NC(=O)CN(C[C@@H](NC(=O)CN(C[C@H](CCCCN)NC(=O)CN(C[C@H](Cc1c[nH]c2ccccc12)NC(=O)CN(C[C@H](CCC(=O)O)NC(=O)CN(C[C@H](Cc1c[nH]c2ccccc12)NC(=O)CN(C[C@H](CCSC)NC(C)=O)S(=O)(=O)CC(C)C)S(=O)(=O)CC(C)C)S(=O)(=O)c1ccc(C(=O)O)cc1)S(=O)(=O)CC(C)C)S(=O)(=O)CCN)[C@H](C)CC)S(=O)(=O)CC(C)C)S(=O)(=O)c1ccc(C(=O)O)cc1)S(=O)(=O)CC(C)C)S(=O)(=O)CCN)[C@H](C)CC)S(=O)(=O)CC(C)C)S(=O)(=O)c1ccc(C(=O)O)cc1)S(=O)(=O)CC(C)C)C(N)=O`, the IC50 was 980 nM in series [1]; 89 nM in series [5]; 84.9 nM in series [6]; 124 nM in series [7]; 154 nM in series [8]; 46.7 nM in [9]. Also, the IC50 worked out at 81.3 nM in [10] and 87.8 nM in series [11]. Further, in series [2], the CC50 at 72 h is > 40000 nM. Besides, in series [3], the selectivity ratio is > 41. For the same compound, the apparent permeability coefficient (Papp) at 50 µM amounted to 602 ×10⁻⁶ cm/s in series [14], 617 ×10⁻⁶ cm/s in series [15] and 390 ×10⁻⁶ cm/s in series [16]. Further, in [18], the Papp at 25 µM worked out at 234 ×10⁻⁶ cm/s.
In the case of `Cc1cc(=O)n(-c2ccccc2)n1C` [ANTIPYRINE], the Papp at 200 µM in series [19] and in series [20] was < 1 ×10⁻⁶ cm/s in each case.
For the compound `NC(=O)N1c2ccccc2C=Cc2ccccc21` [CARBAMAZEPINE], the apparent permeability (Papp) is 134.41 10^-6 cm/s in [14] (pampa, pH 5, 50 µM) and 141.28 10^-6 cm/s in series [15] (pampa, pH 6.2, 50 µM). For the same compound, the Papp at 50 µM in series [16] was determined as 152 ×10⁻⁶ cm/s. In addition, the Papp at 200 µM in series [21] is < 1 ×10⁻⁶ cm/s.
With `Cn1c(=O)c2[nH]cnc2n(C)c1=O.O` [THEOPHYLLINE], the apparent permeability coefficient (Papp) at 250 µM in “in vitro” was < 10 ×10⁻⁶ cm/s.
Turning to enfuvirtide, the IC50 in series [5] came to 28.4 nM; in series [6], 72 nM; in series [7], 28.4 nM; in series [8], 50.8 nM; in series [9] it was 6.5 nM; in [10], 3 nM. Also, the IC50 in series [11] came out at 15.7 nM.

A word on the IC50: it is the midpoint of a concentration-inhibition curve. Usually CC50 stands for the concentration at which the toxic effect on the cells reaches its halfway point. The term Kd denotes the equilibrium constant for the complex coming apart. The Papp is the rate of passage across a membrane or cell layer, normalised by area and donor concentration.
